Experiment: in vitro
Conditions: human, hela cells, % viability

Going from `Cc1cc(C)nc(N2CCC(CC(=O)Nc3ccccc3CN3CCCC3)CC2)n1` [CBK286072] to `Cc1cc(C)nc(N2CCC(CC(=O)N(C)CC(C)c3ccccc3)CC2)n1` (stereo not shown) [CBK286105], the viability at 28.5 h, 10 µM falls from 104% to 83.5%.

Compared with `Cc1cc(C)nc(N2CCC(c3cc(CCOc4ccc(C(F)(F)F)cc4)[nH]n3)C2)n1` (stereo not shown) [CBK286073], `Cn1cc(CN2CCC(c3cncc(-c4cccc(C(F)(F)F)c4)n3)CC2)cn1` [CBK286150] is lower in viability at 28.5 h, 10 µM: 93.5% for the first, 78.4% for the second.

First: Cc1ccc(C2CCCN2C(=O)Cn2cccc(C(=O)NCc3ccccc3)c2=O)cc1C (stereo not shown) [CBK286074]
Second: Cc1cccc(CCNC(=O)c2cccn(CC(=O)N(C)C3CCCCC3)c2=O)c1 [CBK286113]
The viability at 28.5 h, 10 µM of the first is lower: 89.5% for the first, 104% for the second.

Compared with `CCCn1cnc2cc(NC(=O)Cn3cccc(C(=O)NC4CCCCC4)c3=O)ccc21` [CBK286075], `CCn1c(C)nc2cc(NC(=O)Cn3cc(C(=O)NC4CCCCC4)ccc3=O)ccc21` [CBK286095] is lower in viability at 28.5 h, 10 µM: 93% for the first, 92.9% for the second.

Going from `Cc1ccc2c(c1)cc(C(=O)N1CCCC(C)(C(=O)NC3CCCC3)C1)n2C` (stereo not shown) [CBK286076] to `CN1CCN(C(=O)Cn2cc(C(=O)NC3CCCCC3)ccc2=O)C(c2ccccc2)C1` (stereo not shown) [CBK286102], the viability at 28.5 h, 10 µM rises from 81.3% to 87.3%.

Going from `O=C(NCCCc1ccccc1Cl)c1ccc(=O)n(CC(=O)N2CCCCC2)c1` [CBK286078] to `CC(C)c1ccc(C(C)NC(=O)c2ccc(=O)n(CC(=O)N3CCCCC3)c2)cc1` (stereo not shown) [CBK286084], the viability at 28.5 h, 10 µM rises from 85.9% to 88.7%.

Compared with `CC(C)(CNC(=O)Cn1cc(C(=O)Nc2ccc(F)cc2)ccc1=O)c1cccc(F)c1` [CBK286079], `CC(C)(CNC(=O)Cn1cc(C(=O)NC2CCCCC2)ccc1=O)c1cccc(F)c1` [CBK286110] is lower in viability at 28.5 h, 10 µM: 99.6% for the first, 88.4% for the second.

Going from `O=C(Cn1cc(C(=O)NCc2ccc(F)cc2)ccc1=O)NC1(c2ccccc2)CCCC1` [CBK286081] to `CC(C)(CNC(=O)Cn1cc(C(=O)NC2CCCCC2)ccc1=O)c1ccccc1F` [CBK286099], the viability at 28.5 h, 10 µM falls from 96.9% to 89%.

Going from `O=C(c1ccccc1)N1CCC(c2cccc(Cc3ccccc3Cl)n2)CC1` [CBK286085] to `CC(=O)Nc1ccc(C(=O)N2CCC(c3cccc(Cc4ccccc4Cl)n3)CC2)cc1` [CBK286111], the viability at 28.5 h, 10 µM rises from 88.2% to 96.2%.

Compared with `CN(C)c1ncc(-c2ccc(F)cc2)c(C2CCCN2C(=O)c2nccc3ccccc23)n1` (stereo not shown) [CBK286086], `Nc1ncc(-c2ccc(F)cc2)c(C2CCCN(C(=O)CCc3ccc(F)cc3)C2)n1` (stereo not shown) [CBK286092] is higher in viability at 28.5 h, 10 µM: 84.3% for the first, 89% for the second.

Compared with `Cc1ccccc1Cc1cccc(C2CCN(CC(=O)Nc3nccs3)CC2)n1` [CBK286089], `Cc1ccccc1Cc1cccc(C2CCN(S(=O)(=O)c3cn[nH]c3)CC2)n1` [CBK286125] is lower in viability at 28.5 h, 10 µM: 97.6% for the first, 90.8% for the second.

Compared with `COc1ccc(-c2cnc(N)nc2C2CCCN(C(=O)CCCc3ccccc3)C2)cc1` (stereo not shown) [CBK286091], `COc1ccc(CC(=O)N2CCCC(c3nccnc3-c3cccc(C)c3)C2)cc1` (stereo not shown) [CBK286137] is lower in viability at 28.5 h, 10 µM: 94.4% for the first, 94.1% for the second.

Compared with `c1ccc(Nc2nccc(C3CCCN(Cc4ccc5[nH]ccc5c4)C3)n2)nc1` (stereo not shown) [CBK286093], `c1cc(C2CCCCN2Cc2ccc3[nH]ccc3c2)nc(Nc2nccs2)n1` (stereo not shown) [CBK286109] is lower in viability at 28.5 h, 10 µM: 85.3% for the first, 83.6% for the second.

First: CN(C)CCNC(=O)c1sc2ccccc2c1CC1CCCCCN1C(=O)C1CCC1 (stereo not shown) [CBK286096]
Second: CC(=O)N1CCCC[C@H]2[C@H]1C[C@@H](c1ccccc1)N2C(=O)CN1CCCCCC1 [CBK286120]
The viability at 28.5 h, 10 µM of the first is lower: 105% for the first, 117% for the second.

Going from `COc1ccc(-c2cncc(C3CN(Cc4ccc(C)cc4OC)CCO3)n2)cc1` (stereo not shown) [CBK286100] to `COc1ccc(-c2cccc(C3CCCN(C(=O)c4ccc(F)cc4)C3)n2)cc1` (stereo not shown) [CBK286107], the viability at 28.5 h, 10 µM rises from 91.8% to 99.3%.

Compared with `Cc1cc(Cc2cccc(Cl)c2)cc(C2CCCN(C(=O)CN3CCCC3=O)C2)n1` (stereo not shown) [CBK286103], `Cc1cccc(Cc2cccc(C3CCCN(S(=O)(=O)c4cn(C)nc4C)C3)n2)c1` (stereo not shown) [CBK286131] is higher in viability at 28.5 h, 10 µM: 94% for the first, 101% for the second.

First: Cc1nc(CC(=O)N2[C@H]3CCCCCN(C)[C@@]3(C)C[C@H]2c2ccccc2)cs1 [CBK286104]
Second: Cc1nn(C)cc1S(=O)(=O)N1CCCC(c2cccc(Cc3ccccc3Cl)n2)C1 (stereo not shown) [CBK286127]
The viability at 28.5 h, 10 µM of the first is higher: 109% for the first, 106% for the second.

Going from `CCC(c1ccc(F)cc1)N(C)C(=O)Cn1cccc(C(=O)NC2CCCCC2)c1=O` (stereo not shown) [CBK286114] to `CC(CNC(=O)c1cccn(CC(=O)Nc2ccc(F)cc2)c1=O)N1CCCCCC1` (stereo not shown) [CBK286123], the viability at 28.5 h, 10 µM rises from 96.4% to 97.5%.

Going from `CCn1cc(NC(=O)CC2CCN(Cc3cccc(C(F)(F)F)c3)CC2)cn1` [CBK286118] to `O=C(CN1CCC(c2cncc(-c3cccc(C(F)(F)F)c3)n2)CC1)N1CCCC1` [CBK286152], the viability at 28.5 h, 10 µM rises from 89.9% to 94.3%.

Going from `CC(C)c1ccc(C(C)NC(=O)Cn2cc(C(=O)NC3CCCC3)ccc2=O)cc1` (stereo not shown) [CBK286121] to `CC(=O)Nc1ccc(C(=O)N2CCCC(c3cccc(Cc4ccc(Cl)cc4)n3)C2)cc1` (stereo not shown) [CBK286134], the viability at 28.5 h, 10 µM falls from 103% to 99.9%.

First: O=C1N(CCc2ccccc2)CC=CCC12CN(Cc1ccc3[nH]ccc3c1)CCO2 (stereo not shown) [CBK286130]
Second: COc1ccc(CCNC2CCN(Cc3ccccc3)CC2c2ccccc2)cc1OC (stereo not shown) [CBK286166]
The viability at 28.5 h, 10 µM of the first is higher: 105% for the first, 92.8% for the second.

Going from `Cc1cccnc1Nc1ccc(C2CCCCN2Cc2ccc3nccnc3c2)cn1` (stereo not shown) [CBK286133] to `Cc1ccccc1Cc1cccc(C2CCN(C(=O)c3ccc(F)cc3)CC2)n1` [CBK286140], the viability at 28.5 h, 10 µM falls from 89.8% to 88.4%.

Going from `COc1ccccc1Cc1cccc(C2CCCN2C(=O)Cc2c[nH]c3ccccc23)n1` (stereo not shown) [CBK286139] to `COc1cccc(Cc2cccc(C3CCN(C(=O)Cc4c[nH]c5ccccc45)CC3)n2)c1` [CBK286145], the viability at 28.5 h, 10 µM falls from 95.2% to 93.1%.

Going from `COc1cccc(Cc2cccc(C3CCN(C(=O)Cc4ccccc4)CC3)n2)c1` [CBK286147] to `COc1cccc(-c2cncc(C3CCN(C(=O)CCOc4ccccc4)CC3)n2)c1` [CBK286153], the viability at 28.5 h, 10 µM falls from 96.9% to 88.9%.

Going from `Cc1cccc(-c2cncc(C3CCCN(C(=O)Cc4c[nH]c5ccccc45)C3)n2)c1` (stereo not shown) [CBK286149] to `Cc1ccccc1-c1cncc(C2CCN(C(=O)CCOc3ccccc3)CC2)n1` [CBK286154], the viability at 28.5 h, 10 µM rises from 84.1% to 99%.

Going from `CCn1ncc(S(=O)(=O)N2CCCC(c3cccc(-c4cccc(OC)c4)n3)C2)c1C` (stereo not shown) [CBK286155] to `COc1cccc(CN2CCN(CC(=O)N3CCCC3)[C@@H](C)C2)c1` [CBK286171], the viability at 28.5 h, 10 µM falls from 96.8% to 78.1%.

Going from `CCOc1ccc(NC(c2ccccc2)c2cc3cc(OC)ccc3[nH]c2=O)cc1` (stereo not shown) [CBK286157] to `COc1ccc(-c2ccccc2)cc1NCc1cc2cc(OC)c(OC)cc2[nH]c1=O` [CBK286160], the viability at 28.5 h, 10 µM rises from 81.7% to 99.5%.

First: Cc1ccc2nc(O)c(CNc3ccc(-c4nc5cc(C)ccc5[nH]4)cc3)cc2c1 [CBK286161]
Second: Cc1ccc2cc(CNc3ccc4c(c3)-c3ccccc3S(=O)(=O)N4)c(=O)[nH]c2c1 [CBK286163]
The viability at 28.5 h, 10 µM of the first is higher: 89.7% for the first, 70.6% for the second.

Going from `Cc1cc2cc(CNc3cc(-c4ccccc4)ccc3O)c(=O)[nH]c2cc1C` [CBK286164] to `O=C(C1c2ccccc2Oc2ccccc21)N1C2CCC1CC(O)(c1ccco1)C2` (stereo not shown) [CBK286169], the viability at 28.5 h, 10 µM rises from 82.7% to 93.8%.

From publication PMC12040169 (PLOS Biology, 2025)
